Test results as given in patent US20110015080A1, “Solution-based methods for RNA expression profiling” (MASSACHUSETTS INSTITUTE OF TECHNOLOGY, priority 2005, published 2011).

Test system: HL-60 cells
Experiment: Bead-based miRNA expression profiling of HL-60 cells treated with all-trans retinoic acid
Assay type: cell-based, human
Conditions: 1 μM all-trans retinoic acid, 1, 3 and 5 days
Description: Details of sample information are available in Table 9. Total RNAs were prepared from tissues or cell lines using TRIzol (INVITROGEN™, Carlsbad, Calif.), as described (Ramaswamy et al., 2001), and in compliance with IRB protocols. Leukemia bone marrow mononuclear cells were collected from patients treated at ST. JUDE […]′S […] HOSPITAL™ and at DANA-FARBER CANCER […]™ and their immunophenotype and genotype determined as previously described (Ferrando et al., 2002; Yeoh et al., 2002). Normal mouse lung and mouse lung cancer samples were collected from KRasLA1 mice, and genotyped as described (Johnson et al., 2001). Lungs from four- to five-month old mice were inflated with phosphate-buffered saline prior to removal. Individual lung tumors and normal lungs were dissected and immediately frozen on dry ice before RNA preparation. HL-60 cells were plated at 1.5×10^5 cell/ml and induced to differentiate by 1 μM all-trans retinoic acid (SIGMA™, St. Louis, Mo.; in ethanol). […]
miRNA capture probes were 5′-amino-modified oligonucleotides with a 6-carbon linker (IDT). […] Median fluorescence intensity values were measured.
Profiling data were first scaled according to the post-labeling-controls and then the pre-labeling-controls, in order to normalize readings from different probe/bead sets for the same sample, and to normalize for the labeling efficiency, as detailed in Materials and Methods of Example 3. […]

For `CC1=C(/C=C/C(C)=C/C=C/C(C)=C/C(=O)O)C(C)(C)CCC1` [tretinoin, all-trans-retinoic acid], the “miRNA expression in HL-60 cells” value was “induction of many miRNAs coincident with differentiation” and the “miRNA expression in HL-60 cells” value (listed as ATRA) was “increased expression of many miRNAs”.
